Here are results for one molecule from publication PMC8222713, “Variation of Two S3b Residues in KV4.1–4.3 Channels Underlies Their Different Modulations by Spider Toxin κ-LhTx-1” (Frontiers in Pharmacology, 2021).

The structures appear in SMILES notation. Where a SMILES comes first, the peptide text is derived from it. Bridges are numbered along the chain shown (N, C = ends).

The test system of one assay is KV3.4 channel (hKV3.4). Kind of assay: Whole-cell patch clamp selectivity, KV3.4. The format is cell-based, human. Particulars: KV3.4, 10 µM, n = 5. On the procedure:
(§1) The cDNA of hKV1.1, hKV1.3, rKV1.4, hKV1.5, rKV2.1, hKV3.1–3.4, mKV4.1, rKV4.2, and rKV4.3 were subcloned in the eukaryotic expression vector pCDNA3.1 or pCMV-blank. Channel mutants were made by a site-directed mutation method. Briefly, a pair of oppositely directed primers with 15 bp overlap at their 5′ ends and the designed mutation site were used to amplify the parental channel plasmid, then the PCR mix was treated with DpnI to remove the template. 10 μL digestion mix was directly used to transform 100 μL DH5α chemical competent cells. The correct mutation made by this procedure was finally confirmed by DNA sequencing. […] 4–6 h after transfection, cells were seeded onto poly-lysine (PLL) coated coverslips, and 24–36 h later, transfected cells were ready for patch-clamp analysis. […]
(§2) Whole-cell patch clamp recording was performed in an electrophysiology platform equipped with MultiClamp 700B amplifier and Axon Digidata 1550 AD/DA convertor (Axon Instruments, Irvine, CA, United States). […] The whole cell conductance (G) at each depolarizing voltage (V) was determined using the equation: G = I/(V−Vrev), where I and Vrev represents the current amplitude and the reversal potential, respectively. In the present study, Vrev for K^+ current is determined to be −85.61 mV using the Nernst equation. […] Gating currents of KV4.1–4.3 channels were measured as previously reported ([Tilley et al., 2019]). […]
In general terms: Patch clamp records ionic current or voltage across a cell membrane.

Another assay concerns the target T1, KV4.3 channel (rKV4.3) (Rattus norvegicus, UniProt Q62897).
T1 construct: expressed in transfected cells; host or cells: CHO-K1 (transient, co-transfected with pEGFP-N1)
T1 sequence (Q62897 1-655): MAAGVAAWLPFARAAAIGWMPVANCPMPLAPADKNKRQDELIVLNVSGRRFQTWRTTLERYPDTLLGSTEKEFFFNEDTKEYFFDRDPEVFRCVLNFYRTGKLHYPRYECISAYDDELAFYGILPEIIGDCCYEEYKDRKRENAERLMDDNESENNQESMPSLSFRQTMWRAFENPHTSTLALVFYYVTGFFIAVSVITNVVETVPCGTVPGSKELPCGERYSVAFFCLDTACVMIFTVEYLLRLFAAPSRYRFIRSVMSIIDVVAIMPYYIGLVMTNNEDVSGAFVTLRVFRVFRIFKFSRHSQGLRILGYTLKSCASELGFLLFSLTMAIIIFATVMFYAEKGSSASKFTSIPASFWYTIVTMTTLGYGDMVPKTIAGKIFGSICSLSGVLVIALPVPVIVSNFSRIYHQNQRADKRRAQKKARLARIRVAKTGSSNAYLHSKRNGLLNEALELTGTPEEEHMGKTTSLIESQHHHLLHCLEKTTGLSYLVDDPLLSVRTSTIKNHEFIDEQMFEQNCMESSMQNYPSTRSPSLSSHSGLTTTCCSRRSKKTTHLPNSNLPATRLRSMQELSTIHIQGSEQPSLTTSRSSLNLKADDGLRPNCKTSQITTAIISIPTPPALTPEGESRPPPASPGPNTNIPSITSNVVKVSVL
Kind of assay: Whole-cell patch clamp, KV4.3 in CHO-K1 cells. The format is cell-based. On the procedure:
(§3) The cDNA of hKV1.1, hKV1.3, rKV1.4, hKV1.5, rKV2.1, hKV3.1–3.4, mKV4.1, rKV4.2, and rKV4.3 were subcloned in the eukaryotic expression vector pCDNA3.1 or pCMV-blank. Channel mutants were made by a site-directed mutation method. Briefly, a pair of oppositely directed primers with 15 bp overlap at their 5′ ends and the designed mutation site were used to amplify the parental channel plasmid, then the PCR mix was treated with DpnI to remove the template. 10 μL digestion mix was directly used to transform 100 μL DH5α chemical competent cells. The correct mutation made by this procedure was finally confirmed by DNA sequencing. CHO-K1 cells (ATCC® CCL-61™) were grown in DMEM-F12 mixed medium (1:1) supplemented with 10% FBS and maintained in standard conditions (saturated humidity, 37°C, 5% CO2). Channel plasmid was co-transfected with pEGFP-N1 (encodes the green fluoresence protein) into CHO-K1 cells using lipofectamine 2000 following the manufacturer’s instructions. 4–6 h after transfection, cells were seeded onto poly-lysine (PLL) coated coverslips, and 24–36 h later, transfected cells were ready for patch-clamp analysis. It should be note that KV4.2 and its mutants were also co-expressed with hKChIP1 to promote their functional expressions.
(§4) Whole-cell patch clamp recording was performed in an electrophysiology platform equipped with MultiClamp 700B amplifier and Axon Digidata 1550 AD/DA convertor (Axon Instruments, Irvine, CA, United States). Data were acquired using the pClamp software (Axon Instruments, Irvine, CA, United States). All experiments were performed at room temperature. The bath solution contains (in mM): 140 NaCl, 5 KCl, 1 MgCl2, 2 CaCl2, 10 glucose, and 10 HEPES (pH = 7.3). The pipette solution contains (in mM): 140 KCl, 2.5 MgCl2, 11 EGTA, and 10 HEPES (pH = 7.3). Series resistance was kept below 10 MΩ and compensated to 80%. The concentration–response curves were fitted by a Hill logistic equation to estimate the potency (IC50) of the toxin. The whole cell conductance (G) at each depolarizing voltage (V) was determined using the equation: G = I/(V−Vrev), where I and Vrev represents the current amplitude and the reversal potential, respectively. In the present study, Vrev for K^+ current is determined to be −85.61 mV using the Nernst equation. G-V curve was obtained by plotting the normalized G as a function of V and fitted by the Boltzmann equation: y = 1/{1 + exp [(Va−V)/K]}, in which Va, V, and K represents half-maximum activation voltage, test voltage and slope factor, respectively. The steady-state fast inactivation of KV4 channels was measured using a classical two-pulses protocol: cell was held at −120 mV, and a train of conditional voltages (−120–40 mV, in 10 mV increment, 1,000 ms) were applied to induce channel inactivation, followed by a +60 mV test pulse (300 ms) to assess the proportion of non-inactivated channels; the sweep interval was set to 10 s. Currents at the test pulse (I) were normalized to the maximum value (Imax) and plotted as a function of the conditional voltage (V), the curve was fitted by the Boltzmann equation: I/Imax = A + (1−A)/{1 + exp [(V−Vh)/K]}, where Vh is the half-maximum inactivation voltage, A represents the minimum channel availability, and K is the slope factor. Gating currents of KV4.1–4.3 channels were measured as previously reported ([Tilley et al., 2019]). Briefly, the ionic pore currents were abolished by replacing K^+ with NMDG^+ in the pipette solution, and 10 µM Cs^+ was present in the bath solution to occupy the selectivity filter of KV channels to prevent decay of the gating currents during recording.
(§5) Data were presented as MEAN ± SEM, n represents the number of separate experimental cells. Data were analyzed using the software Clampfit 10.5 (Axon Instruments, Irvine, CA, United States), Graphpad Prism 5.01 (GraphPad Software, La Jolla, CA, United States) and Excel 2010 (Microsoft Corporation, Redmond, WA, United States). […]

For assay [1], the system named is KV4.3/275FVPK chimeric channel. Briefly: Whole-cell patch clamp, KV4.3/275FVPK chimera in CHO-K1 cells. Conditions: mean ± SEM. The format is cell-based, rat. The method, then: as §3, §4, §5
The next assay has as its system KV2.1 channel (rKV2.1). Briefly: Whole-cell patch clamp selectivity, KV2.1. The format is cell-based, rat. Particulars: KV2.1, 10 µM, n = 5. The method, then:
as §1, §2

Where [2] appears, read: 10 μM κ-LhTx-1, KV4.3, G-V, mean ± SEM, n = 10.
[3] abbreviates: 10 μM κ-LhTx-1, KV4.3, two-pulse protocol, mean ± SEM, n = 7.
Where [4] appears, read: 10 μM κ-LhTx-1, two-pulse protocol, n = 5.

With `CC[C@H](C)[C@@H]1NC(=O)[C@H](CCC(N)=O)NC(=O)[C@@H]2CSSC[C@@H]3NC(=O)[C@H](CC(C)C)NC(=O)[C@H](CC(N)=O)NC(=O)[C@H](CCSC)NC(=O)[C@H](Cc4c[nH]c5ccccc45)NC(=O)[C@H](CO)NC(=O)[C@H](C)NC(=O)[C@@H](NC(=O)[C@H](CCC(=O)O)NC(=O)[C@H](CCC(N)=O)NC(=O)[C@H](C)NC(=O)[C@H](CC(=O)O)NC(=O)[C@@H](N)CCC(=O)O)CSSC[C@H](NC(=O)[C@H](CSSC[C@@H](C(=O)N[C@@H](CCCCN)C(=O)N[C@@H](Cc4ccc(O)cc4)C(=O)N[C@@H](CCCCN)C(=O)N[C@@H](CC(C)C)C(N)=O)NC(=O)[C@H](Cc4c[nH]c5ccccc45)NC1=O)NC(=O)[C@H](CCCCN)NC(=O)[C@H](CCCCN)NC(=O)[C@H](CCC(=O)O)NC(=O)CNC3=O)C(=O)N[C@@H](CCC(=O)O)C(=O)NCC(=O)N[C@@H](Cc1ccc(O)cc1)C(=O)N[C@@H](C(C)C)C(=O)N2` [κ-LhTx-1] (H-EDAQECASWMNLCGEKKCCEGYVCQIWCKYKL-NH2; disulfide 6-19, 13-24, 18-28 (inferred); N-terminus and C-terminus assumed), the effect on currents entry in the assay with KV3.4 channel (hKV3.4) and with KV2.1 channel (rKV2.1) was “did not remarkably affect the currents” throughout. Besides, the “Va (steady-state activation)” value at KV4.3 channel (rKV4.3) (setting [2]) turned out to be 46.86 ± 1.52 mV; in assay [1] (10 μM κ-LhTx-1, G-V, n = 5), 93.50 ± 2.00 mV. The “k, slope factor (steady-state activation)” value at KV4.3 channel (rKV4.3) (setting [2]) amounted to 20.45 ± 0.30 mV; in assay [1] (10 μM κ-LhTx-1, G-V, n = 5) it was 17.66 ± 1.15 mV. For the same molecule, the “Vh (steady-state inactivation)” value at KV4.3 channel (rKV4.3) (setting [3]) was -30.87 ± 2.23 mV; in assay [1] (setting [4]), -9.28 ± 5.57 mV. The results for the “k, slope factor (steady-state inactivation)” value (on KV4.3 channel (rKV4.3) (setting [3]); in assay [1] (setting [4])) were 6.21 ± 0.43 mV and 16.78 ± 3.11 mV, respectively. In addition, the reversibility of inhibition entry on KV4.3 channel (rKV4.3) (KV4.3) is given as “in a reversible manner”. For the same molecule, at KV4.3 channel (rKV4.3) (KV4.3, 10 µM, inhibition ratio at each depolarizing voltage, n = 5–8), the voltage-dependence of inhibition entry is “decreased quickly with the increment of the depolarizing voltage”. The I-V relationship shift entry on KV4.3 channel (rKV4.3) (KV4.3, 10 µM, n = 5–8) was “only a small shift”. For the same molecule, the “current inhibition at Va” value at KV4.3 channel (rKV4.3) (KV4.3 at Va depolarizing voltage) was “almost fully inhibited”. In addition, the “∆Va (steady-state activation)” value on KV4.3 channel (rKV4.3) (Va shift by 10 μM κ-LhTx-1 vs control, KV4.3, mean ± SEM) is listed as 39.88 ± 2.19 mV; in assay [1] (Va shift by 10 μM κ-LhTx-1 vs control), 94.81 ± 2.45 mV. Further, the “∆Vh (steady-state inactivation)” value was 14.83 ± 3.34 mV on KV4.3 channel (rKV4.3) (Vh shift by 10 μM κ-LhTx-1 vs control, KV4.3, mean ± SEM) and 43.34 ± 5.46 mV in assay [1] (Vh shift by 10 μM κ-LhTx-1 vs control). In assay [1] (inhibition ratio at +100 mV, 10 μM), the “inhi%(min)” value is reported as 65.91 ± 3.36%.
